Results on 27 molecules are retold here after patent US8147818B2, “Hepatitis C virus inhibitors” (Bristol-Myers Squibb Company, priority 2008, dated 2012).

One test has as its system HCV 1b-377-neo replicon cells. The test is described as follows: HCV Replicon assay, HCV 1b-377-neo replicon cells. Particulars: Hepatitis C virus, read-out: EC50 against HCV 1b (Activity or Range). The class given is cell-based, HCV 1b genotype. The protocol: An HCV Replicon assay was utilized in the present disclosure, and was prepared, conducted and validated as described in commonly owned PCT/US2006/022197 and in O'Boyle et. al. Antimicrob Agents Chemother. 2005 April; 49(4):1346-53.
HCV 1b-377-neo replicon cells were used to test the currently described compound series as well as cells resistant to compound A containing a Y2065H mutation in NS5A (described in application PCT/US2006/022197). The compounds tested were determined to have more than 10-fold less inhibitory activity on cells containing the mutation than wild-type cells indicating a related mechanism of action between the two compound series. Thus, the compounds of the present disclosure can be effective to inhibit the function of the HCV NS5A protein and are understood to be as effective in combinations as previously described in application PCT/US2006/022197 and commonly owned WO/O4014852. Further, the compounds of the present disclosure can be effective against the HCV 1b genotype. It should also be understood that the compounds of the present disclosure can inhibit multiple genotypes of HCV. […] In one embodiment compounds of the present disclosure are active against the 1a, 1b, 2a, 2b, 3a, 4a, and 5a genotypes.
The EC50 is the concentration needed to bring the measured effect to its halfway point. As for `COC(=O)N[C@H](C(=O)N1CCC[C@H]1c1ncc(-c2ccc(-c3ccc4c(c3)Cc3nc([C@@H]5CCCN5C(=O)[C@@H](NC(=O)OC)C(C)C)[nH]c3CC4)cc2)[nH]1)C(C)C` [Example 22p], the EC50 came to 0.16 nM.
Consider `COC(=O)N[C@H](C(=O)N(C)[C@@H](C)c1ncc(-c2ccc(-c3ccc4c(c3)CCCc3[nH]c([C@@H]5CCCN5C(=O)[C@@H](NC(=O)OC)C(C)C)nc3-4)cc2)[nH]1)C(C)C` [Example 22e], for which the EC50 came to 0.003 nM.
The same measure, in the same setting: with `COC(=O)N[C@@H](C(=O)N1CCC[C@H]1c1nc2c(ccc3cc(-c4ccc5c(ccc6nc([C@@H]7CCCN7C(=O)[C@H](NC(=O)OC)c7ccccc7)[nH]c65)c4)ccc32)[nH]1)c1ccccc1` [Example 22u.2b] the figure was 0.02 nM; with `CCN(CC)[C@@H](C(=O)N1CCC[C@H]1c1nc2c([nH]1)CCCc1cc(-c3ccc(-c4[nH]c([C@@H]5CCCN5C(=O)[C@@H](c5ccccc5)N(CC)CC)nc4CC(F)(F)F)cc3)ccc1-2)c1ccccc1` [Example 22a.3], 0.01 nM.

The same test, now with this note: Hepatitis C virus, read-out: EC50 against HCV 1b (Activity or Range), range class.
On to `COC(=O)N[C@H](C(=O)N1CCC[C@H]1c1ncc(-c2ccc(-c3ccc4c(c3)CCCCc3c-4nc([C@@H]4CCCN4C(=O)[C@@H](NC(=O)OC)C(C)C)n3O)cc2)[nH]1)C(C)C` [Example 22q], for which the EC50 was in the range of 0.001 to 0.1 nM.
Still for that read-out and setting: next, `CCN(CC)[C@@H](C(=O)N1CCC[C@H]1c1ncc(-c2ccc(-c3ccc4c(c3)CCCCc3[nH]c([C@@H]5CCCN5C(=O)[C@@H](c5ccccc5)N(CC)CC)nc3-4)cc2)[nH]1)c1ccccc1` [Example 22x.1a]: 0.001 to 0.1 nM; `CCN(CC)[C@@H](C(=O)N1CCC[C@H]1c1ncc(-c2ccc(-c3ccc4c(c3)CCCCc3c-4nc([C@@H]4CCCN4C(=O)[C@@H](c4ccccc4)N(CC)CC)n3O)cc2)[nH]1)c1ccccc1` [Example 22q.1]: 0.001 to 0.1 nM.
As for `COC(=O)N[C@H](C(=O)N1[C@@H]2C[C@@H]2C[C@H]1c1ncc(-c2ccc(-c3ccc4c(ccc5[nH]c([C@@H]6C[C@H]7C[C@H]7N6C(=O)[C@@H](NC(=O)OC)C(C)C)nc54)c3)cc2F)[nH]1)C(C)C` [Example 22v.1], the EC50 was in the range of 0.001 to 0.1 nM.
`CCN(CC)[C@@H](C(=O)N1CCC[C@H]1c1ncc(-c2cccc(-c3ccc4c(c3)-c3nc([C@@H]5CCCN5C(=O)[C@@H](c5ccccc5)N(CC)CC)[nH]c3CCC4)c2)[nH]1)c1ccccc1` [Example 22j.1]: the EC50 fell in the range of 1 to 99 nM.
Same read-out and setting: next, `COC(=O)N[C@@H](C)C(=O)N1CCC[C@H]1c1ncc(-c2ccc(-c3ccc4c(c3)CCCc3[nH]c([C@@H]5CCCN5C(=O)[C@H](C)NC(=O)OC)nc3-4)cc2)[nH]1` [Example 22.2]: 0.001 to 0.1 nM.
For the molecule `CCN(CC)[C@@H](C(=O)N1CCC[C@H]1c1nc2c([nH]1)CCCc1cc(-c3ccc4c(c3)CCCc3[nH]c([C@@H]5CCCN5C(=O)[C@@H](c5ccccc5)N(CC)CC)nc3-4)ccc1-2)c1ccccc1` [Example 22k.1], the EC50 fell in the range of 0.001 to 0.1 nM.
On to `CCN(CC)[C@@H](C(=O)N[C@@H](C)c1nc2c([nH]1)CCCc1cc(-c3ccc(-c4cnc([C@@H]5CCCN5C(=O)[C@@H](c5ccccc5)N(CC)CC)[nH]4)cc3)ccc1-2)c1ccccc1` [Example 22c.1], for which the concentration giving a half-maximal response (EC50) was in the range of 0.001 to 0.1 nM.
Turning to `COC(=O)N[C@H](C(=O)N(C)[C@@H](C)c1nc2c([nH]1)CCOc1cc(-c3ccc(-c4cnc([C@@H]5CCCN5C(=O)[C@@H](NC(=O)OC)C(C)C)[nH]4)cc3)ccc1-2)C(C)C` [Example 22b.2], the half-maximal effective concentration (EC50) is 0.001 to 0.1 nM.
Still for that read-out and setting: with `COC(=O)N[C@H](C(=O)N1CCC[C@H]1c1nc2c([nH]1)CCCc1cc(-c3ccc4c(c3)CCCc3[nH]c([C@@H]5CCCN5C(=O)[C@@H](NC(=O)OC)C(C)C)nc3-4)ccc1-2)C(C)C` [Example 22k] the figure was 0.001 to 0.1 nM; with `COC(=O)N[C@@H](C(=O)N1[C@@H]2C[C@@H]2C[C@H]1c1ncc(-c2ccc(-c3ccc4c(c3)CCc3[nH]c([C@@H]5C[C@H]6C[C@H]6N5C(=O)[C@H](NC(=O)OC)c5ccccc5)nc3-4)cc2F)[nH]1)c1ccccc1` [Example 22s.1b], 0.001 to 0.1 nM; with `CCN(CC)[C@@H](C(=O)N1CCC[C@H]1c1ncc(-c2ccc(-c3ccc4c(c3)CCc3[nH]c([C@@H]5CCCN5C(=O)[C@@H](c5ccccc5)N(CC)CC)nc3-4)cc2F)[nH]1)c1ccccc1` [Example 22s.a], 0.001 to 0.1 nM.
Still for that read-out and setting: with `COC(=O)N[C@H](C(=O)N1CCC[C@H]1c1nc2c([nH]1)CCCc1cc(-c3ccc(-c4[nH]c([C@@H]5CCCN5C(=O)[C@@H](NC(=O)OC)C(C)C)nc4CC(F)(F)F)cc3)ccc1-2)C(C)C` [Example 22a.2] the figure was 0.001 to 0.1 nM; with `CCN(CC)[C@@H](C(=O)N1CCC[C@H]1c1ncc(-c2ccc(-c3ccc4c(c3)CCc3[nH]c([C@@H]5CCCN5C(=O)[C@@H](c5ccccc5)N(CC)CC)nc3-4)cc2)[nH]1)c1ccccc1` [Example 22r.a], 0.001 to 0.1 nM.
The same measure, in the same setting: next, `COC(=O)N[C@H](C(=O)N[C@@H](C)c1nc2c([nH]1)CCCc1cc(-c3ccc(-c4cnc([C@@H]5CCCN5C(=O)[C@@H](NC(=O)OC)C(C)C)[nH]4)cc3)ccc1-2)C(C)C` [Example 22c]: 0.001 to 0.1 nM; `COC(=O)N[C@@H](C(=O)N1[C@@H]2C[C@@H]2C[C@H]1c1ncc(-c2ccc(-c3ccc4c(c3)CCc3[nH]c([C@@H]5C[C@H]6C[C@H]6N5C(=O)[C@H](NC(=O)OC)c5ccccc5)nc3-4)cc2)[nH]1)c1ccccc1` [Example 22r.2b]: 0.001 to 0.1 nM; `CCN(CC)[C@@H](C(=O)N1CCC[C@H]1c1ncc(-c2ccc(-c3ccc4c(ccc5[nH]c([C@@H]6CCCN6C(=O)[C@@H](c6ccccc6)N(CC)CC)nc54)c3)cc2F)[nH]1)c1ccccc1` [Example 22v.a]: 0.101 to 0.999 nM.
Consider `COC(=O)N[C@H](C(=O)N1CCC[C@H]1c1ncc(-c2ccc(-c3ccc4c(c3)CCc3[nH]c([C@@H]5CCCN5C(=O)[C@@H](NC(=O)OC)C(C)C)nc3C4)cc2)[nH]1)C(C)C` [Example 22o], for which the EC50 lay in the range of 0.101 to 0.999 nM.
Regarding `COC(=O)N[C@@H](C(=O)N1[C@@H]2C[C@@H]2C[C@H]1c1ncc(-c2ccc(-c3ccc4c(ccc5[nH]c([C@@H]6C[C@H]7C[C@H]7N6C(=O)[C@H](NC(=O)OC)c6ccccc6)nc54)c3)cc2F)[nH]1)c1ccccc1` [Example 22v.1b], the EC50 is 0.001 to 0.1 nM.
Regarding `COC(=O)N[C@H](C(=O)N1[C@@H]2C[C@@H]2C[C@H]1c1ncc(-c2ccc(-c3ccc4c(ccc5[nH]c([C@@H]6C[C@H]7C[C@H]7N6C(=O)[C@@H](NC(=O)OC)C(C)C)nc54)c3)cc2)[nH]1)C(C)C` [Example 22u.1], the EC50 lay within 0.001 to 0.1 nM.
Same read-out and setting: with `COC(=O)N[C@@H](C(=O)N1[C@@H]2C[C@@H]2C[C@H]1c1nc2c(ccc3cc(-c4ccc5c(ccc6nc([C@@H]7C[C@H]8C[C@H]8N7C(=O)[C@H](NC(=O)OC)c7ccccc7)[nH]c65)c4)ccc32)[nH]1)c1ccccc1` [Example 22u.5a] the figure was 0.001 to 0.1 nM; with `COC(=O)N[C@H](C(=O)N1CC(F)(F)C[C@H]1c1ncc(-c2ccc(-c3ccc4c(ccc5[nH]c([C@@H]6CCCN6C(=O)[C@@H](NC(=O)OC)C(C)C)nc54)c3)cc2)[nH]1)C(C)C` [Example 22w], 0.001 to 0.1 nM.
On to `COC(=O)N[C@H](C(=O)N[C@@H](C)c1ncc(-c2ccc(-c3ccc4c(c3)CCCc3[nH]c([C@@H]5CCCN5C(=O)[C@@H](NC(=O)OC)C(C)C)nc3-4)cc2)[nH]1)C(C)C` [Example 22f], for which the EC50 was in the range of 0.001 to 0.1 nM.
